Laboratory results published in patent US20220273809A1, “AXL ANTIBODY-DRUG CONJUGATES FOR USE IN TREATING CANCER” (GENMAB A/S, priority 2019, published 2022).
Non-standard residues stand in square brackets, D forms with d. Residues, ends and D or L forms follow the SMILES beside them. *: point of attachment. Dolaproine = CO[C@@H]([C@@H]1CCCN1)[C@@H](C)C(=O)O; Dil = CC[C@H](C)[C@H](NC)[C@@H](CC(=O)O)OC; X1 = C[C@@H](N*)[C@@H](O)c1ccccc1; NMeV = CN[C@H](C(=O)O)C(C)C

Key:
LCLC-103H cells [1] = test: Calreticulin surface expression in vitro (flow cytometry); assay type: cell-based, human; settings: 48 h; for cell surface expression of calreticulin (MFI) compared to untreated cells: ADCs 2 μg/mL, MMAE 10 or 50 nM, paclitaxel 1 μM; for percentage of calreticulin positive cells: compared to untreated or isotype control ADC
Method: (§1) LCLC-103H or MDA-MB-231 cells were grown to 70% to 80% confluence in 6-well plates, washed with serum-free medium and incubated with IgG1-AXL-107-vcMMAE (2 μg/mL), free monomethyl auristatin E (MMAE, SAFC, cat.no SG10; 10 or 50 nM), paclitaxel (1 μM), or isotype control ADC (IgG1-b12-vcMMAE; 2 μg/mL) in serum-free medium (RPMI1640, Lonza BE17-603E) for 48 hours (LCLC-103H) or 72 hours (MDA-MB-231). After incubation, supernatant and cells were collected and washed in PBS/0.1% BSA/0.02% azide (FACS buffer). Cells were then incubated with a phycoerythrin (PE)-conjugated mouse anti-human calreticulin antibody (Enzo, Cat no. ADI-SPA-601PE-D, lot. 10021835) for 30 min at 4° C. in the dark. A PE-conjugated mouse isotype control antibody (Enzo, cat no. ADI-SAB-600PE-D, lot. 08071817) was included as a control. After washing with FACS buffer, cells were analyzed with flow cytometry in the presence of DAPI (BD; cat no. 564907, lot. 8012653) or TO-PRO-3 (Thermo Fisher, cat no. T3605, lot. 1976612). Calreticulin expression was determined as PE positive cells and the percentage of calreticulin positive cells over isotype control was obtained on DAPI or TO-PRO-3 negative cells.

MDA-MB-231 cells [2] = test: as above; assay type: cell-based, human; settings: 72 h; for cell surface expression of calreticulin (MFI) compared to untreated cells: ADCs 2 μg/mL, MMAE 10 or 50 nM, paclitaxel 1 μM; for percentage of calreticulin positive cells: compared to untreated or isotype control ADC
Method: as §1

LCLC-103H cells [3] = test: Extracellular ATP release in vitro (CellTiterGlo); assay type: cell-based, human; settings: 48 hr, 100% PBS; ADC 2 μg/mL, paclitaxel 1 μM, MMAE 10 or 50 nM
Method: (§2) LCLC-103H or MDA-MB-231 cells were seeded in quadruplicate at 25,000 cells per well for LCLC-103H cells or 125,000 cells per well for MDA-MB-231 cells in 24-well plates and grown 3 hours at 37° C. Subsequently, IgG1-AXL-107-vcMMAE (2 μg/mL), free monomethyl auristatin E (MMAE; 10 or 50 nM), paclitaxel (1 μM), or isotype control ADC (IgG1-b12-vcMMAE; 2 μg/mL) were added per well.
(§3) Plates were incubated for 48 hr at 37° C. and after incubation each well was washed with 200 μL PBS. After the final wash, PBS was replaced with 200 μL fresh 100% PBS or 70% PBS (hypotonic) for the indicated times, harvested and transferred to a 96-well plate, and then spun at 1000 rpm for 2 min at RT. Supernatants were transferred to a new 96-well (optiwhite) plate and ATP was measured using CellTiterGlo Luminescent Cell Viability Assay (Promega, Cat.no G7570) according to manufacturer's instructions. All steps were performed with ice-cold PBS and in the dark.

MDA-MB-231 cells [4] = test: Extracellular ATP release in vitro (CellTiterGlo); assay type: cell-based, human; settings: 48 hr
Method: as §2, §3

LCLC-103H cells [5] = test: HMGB1 secretion in vitro (ELISA); assay type: cell-based, human; settings: 48 hrs; ADC 2 μg/mL, MMAE 10 or 50 nM, paclitaxel 1 μM
Method: (§4) MDA-MB-231 or LCLC-103H cells were seeded in quadruplicate at 125,000 cells per well (MDA-MB-231) or 25,000 cells/well (LCLC-103H) in 24-well plates and grown 3-4 hrs at 37° C. Subsequently, IgG1-AXL-107-vcMMAE (2 μg/mL), free monomethyl auristatin E (MMAE; 10 or 50 nM), paclitaxel (1 μM), or isotype control ADC (IgG1-b12-vcMMAE; 2 μg/mL) were added to the wells and plates were incubated for 48 hrs at 37° C. After incubation cells were pelleted at 1000 rpm for 3 min at RT and supernatants were transferred to a new 96-wells plate. HMGB1 was measured in the supernatant using a HMGB1-specific ELISA kit (IBL, Cat.no ST51011) according to manufacturer's instructions.

MDA-MB-231 cells [6] = test: HMGB1 secretion in vitro (ELISA); assay type: cell-based, human; settings: 48 hrs; ADC 2 μg/mL, MMAE 10 or 50 nM, paclitaxel 1 μM
Method: as §4

[7] = tested on: BLM human melanoma cell line-derived xenograft; test: BLM melanoma xenograft model with MART-1-specific human T cells; assay type: in vivo, mice; settings: ADC single dose 4 mg/kg i.v. with control or MART-1 T cells; anti-PD1 5 mg/kg weekly i.p. with MART-1 T cells and control ADC
Method: (§5) The anti-tumor activity of IgG1-AXL-107-vcMMAE in combination with anti-PD1 (pembrolizumab) was evaluated in the BLM human melanoma cell line-derived xenograft model in mice, which systemically received human T-cells that were engineered to express a melanoma-specific T-cell receptor (TCR) against MART-1. Before inoculation of mice with BLM cells, the BLM cells were transduced with the antigen (MART-1) as well as the correct HLA haplotype (HLA-A2) in order for the MART-1-specific T cells to recognize the tumor cells.
Melanoma cell line BLM was cultured in DMEM (Gibco), with fetal bovine serum (Sigma), 100 U/mL penicillin (Gibco) and 0.1 mg/mL streptomycin (Gibco) under standard conditions, and was regularly confirmed to be mycoplasma-free by PCR. […]
(§6) 8-14 week old male and female NOD-SCID Gamma (NSGTM) mice (bred in-house at the Netherlands Cancer Institute (NKI), Amsterdam, The Netherlands) were subcutaneously injected in the right flank with 1×10^6 BLM tumor cells. Tumors were measured three times per week with a caliper, and when tumors were 100 mm3 (after 7 days) the animals were randomized over the following treatment groups: • 1. […]
(§7) Tumor volumes were measured 3 times per week by an independent animal technician in a blinded fashion. Tumor volume was calculated as follows: […]. […]

[8] = tested on: LCLC-103H NSCLC cell line-derived xenograft; test: LCLC-103H NSCLC xenograft model with MART-1-specific human T cells; assay type: in vivo, mice; settings: ADC 1 mg/kg weekly i.v. with control T cells; anti-PD1 5 mg/kg weekly i.p. with MART-1 T cells and control ADC
Method: as §5, with “LCLC-103H NSCLC” for “BLM human melanoma”, “specific” for “melanoma-specific”, “LCLC-103H” for “BLM”
as §6, with “50” for “100”, “16 days), mice” for “7 days) the animals”, “1. Control T cells+Control ADC (n=7) • 2. MART-1 T cells+Control ADC (n=7) • 3. MART-1 T cells+Control ADC+anti-PD1 (n=7) • 4. Control T cells+IgG1-AXL-107-vcMMAE (n=11) • 5. MART-1 T cells+IgG1-AXL-107-vcMMAE (n=11) • 6. MART-1 T cells+IgG1-AXL-107-vcMMAE+anti-PD1 (n=11)” for “1.”
as §7

mouse Axl = mouse Axl (Mus musculus, UniProt Q00993); test: Binding to mouse Axl
LXFA 526 = settings: 4 mg/kg i.v.; Boshuizen et al, Nature Med 2018; cited from earlier work
LXFA 677 = settings: 4 mg/kg i.v.; Boshuizen et al, Nature Med 2018; cited from earlier work
[9] = hypotonic conditions (70% PBS), ADCs 2 μg/mL, MMAE 50 nM, paclitaxel 1 μM

Sequence of mouse Axl (Q00993 19-888): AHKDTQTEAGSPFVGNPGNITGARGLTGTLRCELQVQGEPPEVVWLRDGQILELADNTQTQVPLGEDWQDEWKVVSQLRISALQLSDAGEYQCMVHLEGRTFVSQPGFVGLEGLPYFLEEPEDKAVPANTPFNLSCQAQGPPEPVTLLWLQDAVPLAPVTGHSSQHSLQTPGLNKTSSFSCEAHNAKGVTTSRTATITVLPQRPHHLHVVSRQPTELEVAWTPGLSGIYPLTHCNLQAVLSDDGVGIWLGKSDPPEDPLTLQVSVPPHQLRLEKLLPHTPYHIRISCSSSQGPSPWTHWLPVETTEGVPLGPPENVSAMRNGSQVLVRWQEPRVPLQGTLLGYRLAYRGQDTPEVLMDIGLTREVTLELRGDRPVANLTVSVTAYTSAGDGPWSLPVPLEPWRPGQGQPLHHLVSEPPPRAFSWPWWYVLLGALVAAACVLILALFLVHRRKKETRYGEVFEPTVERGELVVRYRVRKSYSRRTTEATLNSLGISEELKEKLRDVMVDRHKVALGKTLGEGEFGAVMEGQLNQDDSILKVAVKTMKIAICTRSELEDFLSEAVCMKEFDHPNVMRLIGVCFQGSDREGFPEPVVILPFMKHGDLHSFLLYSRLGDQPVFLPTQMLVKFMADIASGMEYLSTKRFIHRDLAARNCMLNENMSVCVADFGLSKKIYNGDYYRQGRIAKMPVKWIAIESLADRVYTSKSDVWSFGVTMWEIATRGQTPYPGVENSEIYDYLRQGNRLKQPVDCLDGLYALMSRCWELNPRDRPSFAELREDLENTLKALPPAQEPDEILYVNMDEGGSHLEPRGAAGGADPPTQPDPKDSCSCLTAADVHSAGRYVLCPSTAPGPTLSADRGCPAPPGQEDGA

Molecule	cell surface expression of calreticulin (MFI) compared to untreated cells (LCLC-103H cells [1])	percentage of calreticulin positive cells (LCLC-103H cells [1])	cell surface expression of calreticulin (MFI) compared to untreated cells (MDA-MB-231 cells [2])	percentage of calreticulin positive cells (MDA-MB-231 cells [2])	ATP release compared to untreated cells (LCLC-103H cells [3])	ATP release compared to untreated cells (MDA-MB-231 cells [4]; 100% PBS, 10 nM MMAE)	ATP release compared to untreated cells (MDA-MB-231 cells [4]; hypotonic conditions (70% PBS), 10 nM MMAE) [fold]	ATP release compared to untreated cells (MDA-MB-231 cells [4]; [9])	HMGB1 secretion compared to untreated cells (LCLC-103H cells [5])	HMGB1 secretion compared to untreated cells (MDA-MB-231 cells [6])	anti-tumor effect (tumor size) [7]	anti-tumor effect (tumor size) [8]	binding to mouse Axl (mouse Axl)	anti-tumor activity / tumor growth (LXFA 526)	anti-tumor activity / tumor growth (LXFA 677)
CC[C@H](C)[C@@H]([C@@H](CC(=O)N1CCC[C@H]1[C@H](OC)[C@@H](C)C(=O)N[C@H](C)[C@@H](O)c1ccccc1)OC)N(C)C(=O)[C@@H](NC(=O)[C@@H](NC)C(C)C)C(C)C [MMAE, monomethyl auristatin E] (H-[NMeV]V[Dil][Dolaproine]-X1)	comparable	increased	comparable	increased	comparable levels	about 10 fold	~26	about 10 fold	similar	around 4 fold					
CC(=O)O[C@H]1C(=O)[C@@]2(C)[C@H]([C@H](OC(=O)c3ccccc3)[C@]3(O)C[C@H](OC(=O)[C@H](O)[C@@H](NC(=O)c4ccccc4)c4ccccc4)C(C)=C1C3(C)C)[C@]1(OC(C)=O)CO[C@@H]1C[C@@H]2O [paclitaxel]	comparable	increased	comparable	increased	comparable levels			~15 fold	about 11 fold	around 4 fold					
IgG1-AXL-107-vcMMAE: anti-human AXL IgG1-kappa antibody conjugated, on an average of 4 cysteinyl, to MMAE via cleavable mc-val-cit-PABC linker	about 1.4 fold	increased	about 3.5 fold	increased	about 3 fold			~7 fold	about 7.5 fold	about 1.6 fold	induced tumor regression	some tumor growth inhibition	does not bind	strong anti-tumor activity	strong anti-tumor activity
anti-PD1: anti-PD1 antibody pembrolizumab (KEYTRUDA, MSD), obtained from SelleckChem											no enhanced tumor growth inhibition	no enhanced tumor growth inhibition			
